Measurements: paper PMC3874090, “Synthesis and Evaluation of Anti-acetylcholinesterase Activity of 2-(2-(4-(2-Oxo-2-phenylethyl)piperazin-1-yl) ethyl)Isoindoline-1,3-dione Derivatives with Potential Anti-Alzheimer Effects” (Iranian Journal of Basic Medical Sciences, 2013)
Like-named read-outs stand apart in the source and are kept apart here.

Columns and labels:
[1] = target: T1, acetylcholinesterase from electric eel (Electrophorus electricus, UniProt O42275); experiment: biochemical; settings: Ellman test, electric eel AChE
T1 construct: purchased Sigma-Aldrich (Steinheim, Germany) Type V-S
Method: Lyophilized powder of acetylcholinesterase from electric eel source (AChE, E.C. 3.1.1.7, Type V-S, 1000 unit) was purchased from Sigma-Aldrich (Steinheim, Germany). 5,5'-Dithiobis-(2-nitrobenzoic acid, DTNB), potassium dihydrogen phosphate (KH2PO4), dipotassium hydrogen phosphate (K2HPO4), potassium hydroxide (KOH), sodium hydrogen carbonate (NaHCO3), and acetylthiocholine iodide were purchased from Fluka (Buchs, Switzerland).
According to the literature, the Ellman test was performed for assessment of the anticholinesterase activity of intended compounds in vitro. […] After rapid and immediate mixing the change of absorption was measured at 412 nm. The blank reading contained 3 ml buffer, 200 µl water, 100 µl DTNB and 20 µl substrate. The reaction rates were calculated, and the percent inhibition of test compounds was determined. Each concentration was analyzed in triplicate, and IC50 ± SD values were determined graphically from inhibition curves (log inhibitor concentration vs percent of inhibition) ([21], [22]).

acetylcholinesterase = target: acetylcholinesterase; parameters: method as in Sugimoto and collegues [20]; settings: in Figure 2; ref Sugimoto and collegues [20]; read-out: IC50 of lead compound; cited from earlier work
[2] = preincubated 15 min at 25 °C, pH 8.0, triplicate, read-out: IC50 (μM ± SD), acetylcholinesterase inhibitory activity

T1 sequence (O42275 24-633): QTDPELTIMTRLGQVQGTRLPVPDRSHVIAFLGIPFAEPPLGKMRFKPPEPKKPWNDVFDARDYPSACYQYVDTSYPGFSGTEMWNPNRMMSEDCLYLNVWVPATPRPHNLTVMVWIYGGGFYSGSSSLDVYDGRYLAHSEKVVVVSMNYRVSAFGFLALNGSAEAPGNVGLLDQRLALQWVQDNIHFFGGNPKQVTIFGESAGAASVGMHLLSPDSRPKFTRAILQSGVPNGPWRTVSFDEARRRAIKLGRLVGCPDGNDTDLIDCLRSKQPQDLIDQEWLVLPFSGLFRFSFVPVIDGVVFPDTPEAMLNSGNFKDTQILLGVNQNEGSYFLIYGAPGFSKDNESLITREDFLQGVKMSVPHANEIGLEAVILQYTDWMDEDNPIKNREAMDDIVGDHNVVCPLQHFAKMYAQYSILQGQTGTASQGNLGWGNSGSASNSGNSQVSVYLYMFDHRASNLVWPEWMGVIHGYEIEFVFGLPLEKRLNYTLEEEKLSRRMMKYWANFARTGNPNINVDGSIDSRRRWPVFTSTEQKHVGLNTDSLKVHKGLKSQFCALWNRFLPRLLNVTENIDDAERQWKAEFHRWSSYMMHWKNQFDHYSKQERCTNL

SMILES | IC50 [1, 2] [µM] | other results
O=C(CN1CCN(CCN2C(=O)c3ccccc3C2=O)CC1)c1ccccc1 [Compound 4a, 2-(2-(4-(2-Oxo-2-phenylethyl)piperazin-1-yl)ethyl)isoindoline-1,3-dione] | 45.6 ± 2.78 | 
O=C(CN1CCN(CCN2C(=O)c3ccccc3C2=O)CC1)c1ccc(F)cc1 [Compound 4b, 2-(2-(4-(2-(4-Fluorophenyl)-2-oxoethyl)piperazin-1-yl)ethyl)isoindoline-1,3-dione] |  | IC50 ([1]; read-out: IC50, acetylcholinesterase inhibition): 16.4 ± 1.07 µM
O=C(CN1CCN(CCN2C(=O)c3ccccc3C2=O)CC1)c1cccc(Cl)c1 [Compound 4c, 2-(2-(4-(2-(3-Chlorophenyl)-2-oxoethyl)piperazin-1-yl)ethyl)isoindoline-1,3-dione] | 28.2 ± 2.3 | 
O=C(CN1CCN(CCN2C(=O)c3ccccc3C2=O)CC1)c1ccc(Cl)cc1Cl [Compound 4d, 2-(2-(4-(2-(2,4-Dichlorophenyl)-2-oxoethyl)piperazin-1-yl)ethyl)isoindoline-1,3-dione] | 63 ± 4.06 | 
O=C(CN1CCN(CCN2C(=O)c3ccccc3C2=O)CC1)c1ccc2ccccc2c1 [Compound 4e, 2-(2-(4-(2-(Naphthalen-2-yl)-2-oxoethyl)piperazin-1-yl)ethyl)isoindoline-1,3-dione] | 40.5 ± 2.47 | 
O=C1c2ccccc2C(=O)N1CCC1CCN(Cc2ccccc2)CC1 [Compound A] |  | IC50 (acetylcholinesterase): 0.03 µM
